Reference: patent US20240307220A1, “Combination Therapy to Treat Temperature Sensitive Mutant Tumors” (H. LEE MOFFITT CANCER CENTER AND RESEARCH INSTITUTE INC., priority 2021, published 2024)

Test system: H1299 cells stably expressing p53 ts mutants
Experiment: Western blot of p53 target gene induction in H1299 stably expressing ts p53 mutants, with CPT
Assay type: cell-based, human
Procedure: FIGS. 1B and 1C show representative p53 ts mutants stably expressed in H1299 cells tested for induction of target gene expression after 20 hrs at 32° C. CPT (0.5 μM for 20 hrs) was added when cells were shifted to 32° C. […] P53 binding to PUMA promoter was determined by ChIP. The results are average of 3 experiments (mean±SD).
FIGS. 10A to 10F show induction of endogenous targets by ts p53 mutants. P53 ts mutants were stably expressed in H1299 cells using lentivirus vector. Cells were tested for induction of target gene expression after 20 hrs at 32° C. by Western blot. CPT (0.5 μM for 20 hrs) was added when cells were shifted to 32° C. A138V was used as a benchmark to facilitate comparison between gels.
Western blot. Cells were lysed in lysis buffer (50 mM Tris-HCl pH 8.0, 5 mM EDTA, 150 mM NaCl, 0.5% Nonidet P-40, 1×protease inhibitor cocktail) and centrifuged for 10 minutes at 14,000×g, and the insoluble debris was discarded. Cell lysate (10-50 µg of protein) was fractionated by SDS-PAGE and transferred to Immobilion P filters (Millipore). The filter was blocked for 1 hr with phosphate buffered saline (PBS) containing 5% non-fat dry milk and 0.1% Tween 20, incubated with primary and secondary antibodies, and the filter was developed using SuperSignal reagent (Thermo Scientific). MDM2 was detected using monoclonal antibody 3G9 produced in house. Other markers were detected using commercial antibodies: Actin (Sigma A5441), p53-DO1 (BD Pharmingen #554293), p21 (BD Pharmingen #556430), PUMA (CellSignaling #12450), PARP (BD Pharmingen #556362), p53 pSer15 (CellSignaling #9284), p53 acetyl-Lys382 (CellSignaling #2525).
Validation of ts p53 mutants from cancer. We selected 17 most frequently observed ts mutants for validation in p53-null H1299 cells. These ts mutants together represent 9.6% (2,358/24,679) of tumors with p53 missense mutations (Table 3), or 64% (2,358/3,658) of tumors with ts p53 mutations. The ability of these mutants to activate the p21 and PUMA promoters at 32° C. were confirmed in reporter assays after transient expression (FIG. 2A, FIG. 8A-8C). […]

Compound: CC[C@@]1(O)C(=O)OCc2c1cc1n(c2=O)Cc2cc3ccccc3nc2-1 [CPT, Camptothecin]
- ts p53 Ser15 phosphorylation and K382 acetylation (CPT 0.5 μM for 20 hrs at 32° C., Western blot): stimulated
- PUMA expression in the absence of p53 (H1299 without p53, CPT 0.5 μM for 20 hrs): modestly stimulated PUMA expression
- induction of endogenous PUMA (stably transfected H1299 with ts mutants, CPT 0.5 μM for 20 hrs at 32° C., Western blot): could be stimulated
